Key:
[1] = Anti-glycation assay (L-arginine and glucose, absorbance at 420 nm); type: biochemical; settings: pH 7.4, 70 ℃, 4 h, 0.1 M glucose
[2] = tested on: B-16 mouse melanoma cell [쥐의 멜라노마 세포(B-16 mouse melanoma cell)]; assay: Total melanin amount in B-16 mouse melanoma cells; type: cell-based; settings: 3 days; for melanin production amount: absorbance at 400 nm per 1×10^6 cells, DMSO control 0.33
[3] = tested on: nitric oxide (NO) production in RAW264.7 cells [RAW264.7 세포주, Nitric oxide(NO)]; assay: NO production inhibition in LPS-stimulated RAW264.7 cells (GRIESS method); type: cell-based; settings: Mus musculus, LPS 1 μg, 24 h, 540 nm, read-out: NO production inhibition rate
[4] = tested on: type I collagen [제1형 콜라겐(type I collagen)]; assay: Type I collagen synthesis in human-derived fibroblasts (PICP EIA kit); type: cell-based; settings: 48 h culture, n=4; for type I collagen synthesis amount: negative control 150.2; for increase rate (type I collagen synthesis): relative to untreated control
[5] = target: T1, elastase [엘라스테이즈(Elastase)] (Homo sapiens, UniProt P08246); assay: Elastase activity inhibition (human leukocyte elastase, MeOSuc-Ala-Ala-Pro-Val-pNA); type: biochemical; settings: for enzyme activity: slope of absorbance at 405 nm vs time, room temperature, 20 min, n=3, DMSO control 10.4
T1 construct: 엘라스테이즈(Elastase)는 사람의 백혈구 세포로부터 유래한 엘라스테이즈를 사용하였고; from tissue; host or cells: human leukocytes (사람의 백혈구 세포)
T1 sequence (P08246 30-267): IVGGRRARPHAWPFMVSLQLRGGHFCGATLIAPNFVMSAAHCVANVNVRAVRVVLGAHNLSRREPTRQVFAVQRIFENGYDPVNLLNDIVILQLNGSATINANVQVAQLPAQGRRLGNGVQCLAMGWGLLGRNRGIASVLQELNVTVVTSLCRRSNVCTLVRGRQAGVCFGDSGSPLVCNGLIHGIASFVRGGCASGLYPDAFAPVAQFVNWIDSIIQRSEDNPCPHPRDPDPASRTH

[6] = Mus musculus, 72 h, 10 ppm, relative to control, read-out: increase rate (total melanin)
[7] = pH 7.5, read-out: inhibition rate (elastase)

N=C(N)NN [Aminoguanidine, reference compound]
inhibition rate (glycation) ([1]; 55 ppm): 54.89%

C=C[C@@]1(C)CC(=O)[C@]2(O)[C@@]3(C)[C@@H](O)CCC(C)(C)[C@@H]3[C@H](O)[C@H](OC(C)=O)[C@@]2(C)O1 [Forskolin, reference compound]
melanin production amount ([2]; 10 ppm): 0.792 abs | activation at 10 ppm [2, 6]: 140%

CNC(=N)NCCC[C@H](N)C(=O)O [L-NMMA, L-NG-Monomethylarginine, reference compound]
inhibition at 10 ppm [3]: 41%

O=C1O[C@H]([C@@H](O)CO)C(O)=C1O [비타민 C, reference compound]
type I collagen synthesis amount ([4]; 52.85 ppm (52.85 ㎍/ml)): 246.8 ng/mL | increase rate (type I collagen synthesis) ([4]; 52.85 ppm (52.85 ㎍/ml)): 64.3%

COc1cc([C@H]2OC[C@H]3[C@@H]2CO[C@H]3c2ccc(OC)c(OC)c2)ccc1O [화학식1의 화합물, phillygenin]
type I collagen synthesis amount ([4]; 1 ppm): 187.6 ng/mL | increase rate (type I collagen synthesis) ([4]; 1 ppm): 24.9% | type I collagen synthesis amount ([4]; 10 ppm): 234.7 ng/mL | increase rate (type I collagen synthesis) ([4]; 10 ppm): 56.3% | enzyme activity ([5]; 10 ppm): 3.9 | enzyme activity ([5]; 20 ppm): 3.5 | inhibition at 10 ppm [5, 7]: 62.5% | inhibition at 20 ppm [5, 7]: 66.3% | inhibition rate (glycation) ([1]; 25 ppm): 32.68% | inhibition rate (glycation) ([1]; 50 ppm): 55.64% | inhibition at 1 ppm ([3]; 1 ppm): 17.9% | inhibition at 10 ppm [3]: 20.6% | inhibition at 100 ppm ([3]; 100 ppm): 51.7% | melanin production amount ([2]; 1 ppm): 0.359 abs | melanin production amount ([2]; 10 ppm): 0.403 abs | activation at 1 ppm ([2]; Mus musculus, 72 h, 1 ppm, relative to control, read-out: increase rate (total melanin)): 8.79% | activation at 10 ppm [2, 6]: 22.1%

Reference: patent publication KR20170076438A, “필리게닌을 포함하는 피부상태 개선용 조성물” (주식회사 엘지생활건강, priority 2015, dated 2017)
